Experimental data reported in ChEMBL document CHEMBL4507297, “Data for DCP probe PF-04457845” (2021).
Active and inactive are the calls of the source. The calls are words filed in the database; no cut-off is given here.

Assays:
[1] = target: T1, 5-hydroxytryptamine receptor 2A (Homo sapiens, UniProt P28223); assay: GPCRScan assay: inhibition of 5-HT2A; parameters: radioligand conc. used [nm] 1.2 – 2.4, parental cells HEKT
Cannabinoid receptor 2 = Cannabinoid receptor 2 (Homo sapiens, UniProt P34972); assay: CB2 (h) CEREP ligand profiling
[2] = target: Histamine H1 receptor (Homo sapiens) (UniProt P35367); assay: H1 (h) CEREP ligand profiling; conditions: Compound concentration 10.0 uM
[3] = target: Vasopressin V1a receptor (Homo sapiens) (UniProt P37288); assay: V1a (h) CEREP ligand profiling; conditions: Compound concentration 10.0 uM
[4] = target: Adrenergic receptor alpha-1 (Homo sapiens) (UniProt P35348+P25100+P35368); assay: alpha1 (non-selective) CEREP ligand profiling; format: protein assay; conditions: Compound concentration 10.0 uM
[5] = target: Beta-3 adrenergic receptor (Homo sapiens) (UniProt P13945); conditions: Compound concentration 10.0 uM
[6] = target: Kappa-type opioid receptor (Homo sapiens) (UniProt P41145); assay: kappa (KOP) CEREP ligand profiling; conditions: Compound concentration 10.0 uM
[7] = target: Type-1 angiotensin II receptor (Homo sapiens) (UniProt P30556); assay: AT1 (h) CEREP ligand profiling; conditions: Compound concentration 10.0 uM
[8] = target: Neuronal acetylcholine receptor; alpha4/beta2 (Homo sapiens) (UniProt P17787+P43681); assay: N(neuronal) (α-BGTX-insensitive) (α4β2 nicotinic receptor) CEREP ligand profiling; conditions: Compound concentration 10.0 uM
[9] = target: Phosphodiesterase 4 (Homo sapiens) (UniProt P27815+Q08499+Q07343+Q08493); assay: PDE 4 (h) CEREP ligand profiling; format: protein assay; conditions: Compound concentration 10.0 uM
[10] = target: Sigma non-opioid intracellular receptor 1 (Homo sapiens, UniProt Q99720); assay: GPCRScan assay: inhibition of Sigma 1; parameters: radioligand conc. used [nm] 4.0 – 5.0, parental cells HEKT
[11] = target: Alpha-1A adrenergic receptor (Homo sapiens) (UniProt P35348); conditions: Compound concentration 10.0 uM
[12] = target: D(1A) dopamine receptor (Homo sapiens) (UniProt P21728); assay: D1 (h) CEREP ligand profiling; conditions: Compound concentration 10.0 uM
[13] = target: Sodium-dependent noradrenaline transporter (Homo sapiens) (UniProt P23975); assay: NE transporter (h) CEREP ligand profiling; conditions: Compound concentration 10.0 uM
[14] = target: Alpha-2B adrenergic receptor (Homo sapiens) (UniProt P18089); conditions: Compound concentration 10.0 uM
[15] = target: Cholecystokinin receptor type A (Homo sapiens) (UniProt P32238); assay: CCKA (h) (CCK1) CEREP ligand profiling; conditions: Compound concentration 10.0 uM
[16] = target: Adenosine receptor A1 (Homo sapiens) (UniProt P30542); assay: A1 (h) CEREP ligand profiling; conditions: Compound concentration 10.0 uM
[17] = target: Histamine H4 receptor (Homo sapiens) (UniProt Q9H3N8); conditions: Compound concentration 10.0 uM
[18] = target: T1, 5-hydroxytryptamine receptor 2A; assay: 5-HT2A (h) (agonist site) CEREP ligand profiling
[19] = target: T2, Alpha-2A adrenergic receptor (Homo sapiens) (UniProt P08913); assay: alpha2A (h) CEREP ligand profiling; conditions: Compound concentration 10.0 uM
T2 sequence (whole entry): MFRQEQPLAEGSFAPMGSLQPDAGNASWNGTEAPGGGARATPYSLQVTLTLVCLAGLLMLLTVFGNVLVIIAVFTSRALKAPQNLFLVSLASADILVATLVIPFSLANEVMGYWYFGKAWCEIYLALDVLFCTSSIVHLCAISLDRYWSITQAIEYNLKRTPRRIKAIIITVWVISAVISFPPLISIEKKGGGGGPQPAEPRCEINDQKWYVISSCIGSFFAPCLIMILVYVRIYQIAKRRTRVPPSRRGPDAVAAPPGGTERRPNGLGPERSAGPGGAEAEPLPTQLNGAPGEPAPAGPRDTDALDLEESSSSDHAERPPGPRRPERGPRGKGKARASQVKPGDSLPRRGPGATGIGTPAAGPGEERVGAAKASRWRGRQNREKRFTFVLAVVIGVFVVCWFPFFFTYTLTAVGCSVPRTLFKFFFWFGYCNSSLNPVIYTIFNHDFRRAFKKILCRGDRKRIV

[20] = target: Acetylcholinesterase (Homo sapiens) (UniProt P22303); assay: Acetylcholinesterase (h) CEREP ligand profiling; conditions: Compound concentration 10.0 uM
[21] = target: D(2) dopamine receptor (Homo sapiens) (UniProt P14416); assay: D2S (h) CEREP ligand profiling; conditions: Compound concentration 10.0 uM
[22] = target: Sodium- and chloride-dependent GABA transporter 1 (Homo sapiens) (UniProt P30531); assay: GABA transporter CEREP ligand profiling; conditions: Compound concentration 10.0 uM
[23] = target: Histamine H3 receptor (Homo sapiens) (UniProt Q9Y5N1); assay: H3 (h) CEREP ligand profiling; conditions: Compound concentration 10.0 uM
[24] = target: Mitogen-activated protein kinase 14 (Homo sapiens) (UniProt Q16539); assay: p38alpha kinase (h) CEREP ligand profiling; conditions: Compound concentration 10.0 uM
[25] = target: Sodium-dependent dopamine transporter (Homo sapiens) (UniProt Q01959); assay: DA transporter (h) CEREP ligand profiling; conditions: Compound concentration 10.0 uM
[26] = target: T3, GABA-A receptor; anion channel (Homo sapiens) (UniProt P14867+P47870+P18507+P28472+P48169+Q99928+Q9UN88+P34903+O00591+O14764+Q8N1C3+P18505+P78334+P47869+P31644+Q16445); assay: BZD (central) CEREP ligand profiling; format: protein-complex assay; conditions: Compound concentration 10.0 uM
[27] = target: Ca2+ channel (L, verapamil site) (phenylalkylamines); voltage-gated L-type calcium channel (Homo sapiens, UniProt O60840+Q01668+Q13698+Q13936); assay: Ca2+ channel (L, verapamil site) (phenylalkylamines) CEREP ligand profiling; format: protein assay; conditions: compound concentration 10 uM
[28] = target: Sodium/potassium-transporting ATPase (Homo sapiens) (UniProt P05023+P14415+P05026+P50993+P54709+P13637+Q13733+P54710); assay: ATPase (Na+/K+) CEREP ligand profiling; format: protein-complex assay; conditions: Compound concentration 10.0 uM
[29] = target: Glutamate [NMDA] receptor (Homo sapiens) (UniProt Q05586+Q12879+Q13224+O15399+O60391+Q14957+Q8TCU5); assay: NMDA CEREP ligand profiling; format: protein-complex assay; conditions: Compound concentration 10.0 uM
[30] = target: T3, GABA-A receptor; anion channel (Homo sapiens); assay: GABAA CEREP ligand profiling; format: protein-complex assay; conditions: Compound concentration 10.0 uM
[31] = target: 5-hydroxytryptamine receptor 4 (Homo sapiens) (UniProt Q13639); assay: 5-HT4e (h) CEREP ligand profiling; conditions: Compound concentration 10.0 uM
[32] = target: 5-hydroxytryptamine receptor 1A (Homo sapiens) (UniProt P08908); conditions: Compound concentration 10.0 uM
[33] = target: T4, Fatty-acid amide hydrolase 1 (Homo sapiens, UniProt O00519); assay: Glutamate dehydrogenase-coupled FAAH assay (preincubation time 60 min)
[34] = target: Ca2+ channel (L, diltiazem site) (benzothiazepines); voltage-gated L-type calcium channel (Homo sapiens, UniProt O60840+Q01668+Q13698+Q13936); assay: Ca2+ channel (L, diltiazem site) (benzothiazepines) CEREP ligand profiling; format: protein assay; conditions: compound concentration 10 uM
[35] = target: 5-hydroxytryptamine receptor 7 (Homo sapiens) (UniProt P34969); assay: 5-HT7 (h) CEREP ligand profiling; conditions: Compound concentration 10.0 uM
[36] = target: Phosphodiesterase 3 (Homo sapiens) (UniProt Q14432+Q13370); assay: PDE 3 (h) CEREP ligand profiling; format: protein assay; conditions: Compound concentration 10.0 uM
[37] = target: T4, Fatty-acid amide hydrolase 1; assay: Binding assay; parameters: compound concentration 10 uM

T1 sequence (P28223 whole entry): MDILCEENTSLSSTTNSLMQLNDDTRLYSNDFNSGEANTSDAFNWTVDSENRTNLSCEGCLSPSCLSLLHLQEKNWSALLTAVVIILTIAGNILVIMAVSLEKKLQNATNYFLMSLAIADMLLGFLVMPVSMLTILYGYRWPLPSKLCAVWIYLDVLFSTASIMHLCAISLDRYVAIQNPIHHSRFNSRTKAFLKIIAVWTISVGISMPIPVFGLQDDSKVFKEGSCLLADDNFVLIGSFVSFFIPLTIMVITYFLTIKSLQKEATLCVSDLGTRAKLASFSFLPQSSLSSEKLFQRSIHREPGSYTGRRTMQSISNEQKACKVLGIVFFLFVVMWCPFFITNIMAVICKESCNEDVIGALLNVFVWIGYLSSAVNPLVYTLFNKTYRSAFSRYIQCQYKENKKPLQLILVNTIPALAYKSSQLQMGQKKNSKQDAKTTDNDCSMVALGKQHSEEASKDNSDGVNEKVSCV
T4 sequence (O00519 whole entry): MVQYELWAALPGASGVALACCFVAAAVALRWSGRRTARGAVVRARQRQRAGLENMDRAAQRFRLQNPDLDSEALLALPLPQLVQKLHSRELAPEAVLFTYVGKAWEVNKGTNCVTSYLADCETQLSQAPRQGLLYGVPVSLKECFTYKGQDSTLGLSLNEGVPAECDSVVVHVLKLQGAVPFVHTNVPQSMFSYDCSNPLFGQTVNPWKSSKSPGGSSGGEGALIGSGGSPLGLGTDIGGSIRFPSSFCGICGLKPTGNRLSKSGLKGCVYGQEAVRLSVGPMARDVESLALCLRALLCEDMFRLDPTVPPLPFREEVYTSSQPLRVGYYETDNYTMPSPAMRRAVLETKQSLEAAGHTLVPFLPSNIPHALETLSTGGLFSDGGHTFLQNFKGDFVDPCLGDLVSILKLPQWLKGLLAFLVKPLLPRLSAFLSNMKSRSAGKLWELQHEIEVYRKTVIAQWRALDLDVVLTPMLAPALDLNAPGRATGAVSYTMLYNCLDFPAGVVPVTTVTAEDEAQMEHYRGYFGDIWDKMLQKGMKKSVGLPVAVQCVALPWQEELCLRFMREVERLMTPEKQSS
Chain of Cannabinoid receptor 2 (P34972 whole entry): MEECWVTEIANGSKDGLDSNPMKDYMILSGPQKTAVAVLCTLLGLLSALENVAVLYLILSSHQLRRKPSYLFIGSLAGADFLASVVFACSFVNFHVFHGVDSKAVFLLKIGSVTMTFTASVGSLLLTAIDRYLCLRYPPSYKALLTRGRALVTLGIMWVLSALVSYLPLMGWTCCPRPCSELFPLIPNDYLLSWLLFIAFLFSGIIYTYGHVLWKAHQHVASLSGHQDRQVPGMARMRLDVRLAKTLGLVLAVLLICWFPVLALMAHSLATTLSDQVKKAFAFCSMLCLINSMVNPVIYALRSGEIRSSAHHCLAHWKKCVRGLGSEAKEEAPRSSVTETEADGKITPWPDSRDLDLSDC
Chain of Cholecystokinin receptor type A (Homo sapiens) (P32238 whole entry): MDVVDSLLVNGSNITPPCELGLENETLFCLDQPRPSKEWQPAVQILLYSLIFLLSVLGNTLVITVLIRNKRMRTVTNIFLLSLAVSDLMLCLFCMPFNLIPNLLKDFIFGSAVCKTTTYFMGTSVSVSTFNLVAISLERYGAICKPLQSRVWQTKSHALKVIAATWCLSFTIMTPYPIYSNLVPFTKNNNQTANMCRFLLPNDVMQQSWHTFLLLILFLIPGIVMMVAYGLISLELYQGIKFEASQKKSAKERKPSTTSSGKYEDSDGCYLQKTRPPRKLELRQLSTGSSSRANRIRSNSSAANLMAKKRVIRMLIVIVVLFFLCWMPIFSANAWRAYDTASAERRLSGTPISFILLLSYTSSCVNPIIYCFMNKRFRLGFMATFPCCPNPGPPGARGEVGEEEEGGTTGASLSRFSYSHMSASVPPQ
Chain of D(2) dopamine receptor (Homo sapiens) (P14416 whole entry): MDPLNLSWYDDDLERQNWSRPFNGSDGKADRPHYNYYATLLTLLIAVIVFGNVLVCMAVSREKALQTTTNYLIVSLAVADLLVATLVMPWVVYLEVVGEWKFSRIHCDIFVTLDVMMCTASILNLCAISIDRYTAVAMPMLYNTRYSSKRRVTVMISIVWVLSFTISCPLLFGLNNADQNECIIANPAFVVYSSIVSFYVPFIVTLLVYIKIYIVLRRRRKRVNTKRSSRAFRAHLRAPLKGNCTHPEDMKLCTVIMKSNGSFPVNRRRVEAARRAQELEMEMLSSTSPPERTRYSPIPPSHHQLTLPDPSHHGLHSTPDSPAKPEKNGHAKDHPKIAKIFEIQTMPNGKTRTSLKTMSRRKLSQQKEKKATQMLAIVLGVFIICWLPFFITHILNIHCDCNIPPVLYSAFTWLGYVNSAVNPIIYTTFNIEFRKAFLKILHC
Chain of Histamine H4 receptor (Homo sapiens) (Q9H3N8 whole entry): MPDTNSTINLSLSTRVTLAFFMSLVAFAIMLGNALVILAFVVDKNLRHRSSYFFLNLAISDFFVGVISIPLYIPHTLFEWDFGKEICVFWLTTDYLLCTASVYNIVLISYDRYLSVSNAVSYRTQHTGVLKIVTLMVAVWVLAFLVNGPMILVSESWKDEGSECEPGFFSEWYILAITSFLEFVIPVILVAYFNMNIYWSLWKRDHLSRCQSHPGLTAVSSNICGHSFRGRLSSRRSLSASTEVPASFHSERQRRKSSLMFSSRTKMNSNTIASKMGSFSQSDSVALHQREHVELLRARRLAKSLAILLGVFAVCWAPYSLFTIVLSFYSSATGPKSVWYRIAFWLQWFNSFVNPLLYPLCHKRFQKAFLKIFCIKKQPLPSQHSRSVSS
Chain of Alpha-2B adrenergic receptor (Homo sapiens) (P18089 whole entry): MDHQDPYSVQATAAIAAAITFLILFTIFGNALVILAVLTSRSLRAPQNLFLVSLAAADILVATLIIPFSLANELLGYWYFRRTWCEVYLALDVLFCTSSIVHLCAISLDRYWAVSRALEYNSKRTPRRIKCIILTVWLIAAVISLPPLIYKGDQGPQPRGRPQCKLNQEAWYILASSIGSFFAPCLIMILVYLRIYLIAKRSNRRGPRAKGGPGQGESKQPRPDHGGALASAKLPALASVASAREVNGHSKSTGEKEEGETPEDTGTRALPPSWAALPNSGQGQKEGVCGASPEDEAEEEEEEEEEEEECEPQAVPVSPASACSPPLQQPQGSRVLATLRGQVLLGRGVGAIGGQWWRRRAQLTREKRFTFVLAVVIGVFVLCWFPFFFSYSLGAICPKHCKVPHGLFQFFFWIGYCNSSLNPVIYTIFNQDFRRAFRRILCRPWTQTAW
Chain of Adenosine receptor A1 (Homo sapiens) (P30542 whole entry): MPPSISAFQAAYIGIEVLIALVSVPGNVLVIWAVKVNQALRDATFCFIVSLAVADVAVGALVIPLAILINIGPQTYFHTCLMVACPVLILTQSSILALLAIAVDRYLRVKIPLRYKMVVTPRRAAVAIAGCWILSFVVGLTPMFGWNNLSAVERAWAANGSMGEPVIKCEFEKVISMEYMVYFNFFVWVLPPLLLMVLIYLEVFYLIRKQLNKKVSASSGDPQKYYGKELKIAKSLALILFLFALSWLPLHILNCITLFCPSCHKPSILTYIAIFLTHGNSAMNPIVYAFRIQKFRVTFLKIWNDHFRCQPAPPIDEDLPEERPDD
Chain of Acetylcholinesterase (Homo sapiens) (P22303 whole entry): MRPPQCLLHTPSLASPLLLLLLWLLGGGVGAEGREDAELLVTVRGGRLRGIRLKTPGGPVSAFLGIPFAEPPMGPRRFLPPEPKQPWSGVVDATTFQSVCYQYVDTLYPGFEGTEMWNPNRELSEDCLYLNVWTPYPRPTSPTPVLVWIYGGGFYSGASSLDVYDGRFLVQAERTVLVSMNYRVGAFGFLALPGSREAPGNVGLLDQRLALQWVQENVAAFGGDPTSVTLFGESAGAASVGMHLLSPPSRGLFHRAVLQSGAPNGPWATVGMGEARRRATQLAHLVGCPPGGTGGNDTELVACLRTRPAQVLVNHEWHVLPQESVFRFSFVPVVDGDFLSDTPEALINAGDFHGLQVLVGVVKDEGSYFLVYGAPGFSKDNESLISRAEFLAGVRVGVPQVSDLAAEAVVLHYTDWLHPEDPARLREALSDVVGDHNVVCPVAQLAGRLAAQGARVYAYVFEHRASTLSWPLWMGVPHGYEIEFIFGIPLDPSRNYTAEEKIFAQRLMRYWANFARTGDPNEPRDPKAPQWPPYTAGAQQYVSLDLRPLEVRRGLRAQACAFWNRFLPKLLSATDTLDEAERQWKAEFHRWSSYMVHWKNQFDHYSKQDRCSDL
Chain of 5-hydroxytryptamine receptor 4 (Homo sapiens) (Q13639 whole entry): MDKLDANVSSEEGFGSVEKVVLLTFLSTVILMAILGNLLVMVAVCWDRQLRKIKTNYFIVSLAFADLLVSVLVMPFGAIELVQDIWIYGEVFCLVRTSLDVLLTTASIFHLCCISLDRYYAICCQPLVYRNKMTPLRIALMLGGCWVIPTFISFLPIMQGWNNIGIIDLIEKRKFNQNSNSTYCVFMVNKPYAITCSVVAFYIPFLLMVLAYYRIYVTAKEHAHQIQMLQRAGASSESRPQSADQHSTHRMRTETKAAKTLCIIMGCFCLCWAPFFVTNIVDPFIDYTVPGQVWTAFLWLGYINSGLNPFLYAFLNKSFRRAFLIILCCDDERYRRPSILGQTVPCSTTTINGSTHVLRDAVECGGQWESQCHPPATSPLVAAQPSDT
Chain of 5-hydroxytryptamine receptor 7 (Homo sapiens) (P34969 whole entry): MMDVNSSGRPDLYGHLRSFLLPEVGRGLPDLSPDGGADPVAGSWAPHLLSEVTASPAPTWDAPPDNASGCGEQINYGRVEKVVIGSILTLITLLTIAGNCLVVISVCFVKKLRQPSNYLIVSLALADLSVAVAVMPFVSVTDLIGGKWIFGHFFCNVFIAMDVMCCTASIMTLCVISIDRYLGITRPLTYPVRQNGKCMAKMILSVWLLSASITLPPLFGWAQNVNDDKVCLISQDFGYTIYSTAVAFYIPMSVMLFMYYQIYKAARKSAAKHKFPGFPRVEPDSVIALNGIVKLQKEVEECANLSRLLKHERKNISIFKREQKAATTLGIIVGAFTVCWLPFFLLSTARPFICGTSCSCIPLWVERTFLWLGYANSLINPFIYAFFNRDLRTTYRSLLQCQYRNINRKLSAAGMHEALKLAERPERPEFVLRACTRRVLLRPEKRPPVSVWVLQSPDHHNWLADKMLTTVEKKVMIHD

O=C(Nc1cccnn1)N1CCC(=Cc2cccc(Oc3ccc(C(F)(F)F)cn3)c2)CC1
Ki [1]: 249 nM | Ki (Cannabinoid receptor 2): 5100 nM | inhibition (Cannabinoid receptor 2; Compound concentration 10.0 uM): 55% | inhibition [2]: -1% | inhibition [3]: 8% | inhibition [4]: -2% | inhibition [5]: 0.69% | inhibition [6]: 0% | inhibition [7]: -10% | inhibition [8]: 8% | inhibition [9]: 18% | Ki [10]: 472 nM | inhibition [11]: 10.3% | inhibition [12]: 3% | inhibition [13]: -5% | inhibition [14]: 40% | inhibition [15]: -10% | inhibition [16]: 3% | inhibition [17]: 17.3% | Ki [18]: 1600 nM | inhibition ([18]; Compound concentration 10.0 uM): 57% | inhibition [19]: -4% | inhibition [20]: 10% | inhibition [21]: -9% | inhibition [22]: -1% | inhibition [23]: 10% | inhibition [24]: 1% | inhibition [25]: -1% | inhibition [26]: 15% | inhibition at 10 µM [27]: -5% (not active) | inhibition [28]: -2% | inhibition [29]: -3% | inhibition [30]: -4% | inhibition [31]: -8% | inhibition [32]: 20.2% | IC50 [33]: 7.4 nM (active) | inhibition at 10 µM [34]: 1% (not active) | inhibition [35]: 7% | inhibition [36]: 10%

O=C(Nc1cccnn1)N1CC(C/C=C/c2cncc(Oc3ccc(C(F)(F)F)cn3)n2)C1
IC50 [37]: > 100000 nM (not active)
